Measurements reported in publication PMC7347206, “Characterization of a long-term mouse primary liver 3D tissue model recapitulating innate-immune responses and drug-induced liver toxicity” (PLoS ONE, 2020).
Read-outs that look alike come from different tables or passages of the source.

What was measured:
[1] = tested on: mouse primary hepatocyte 3D liver spheroids; experiment: cells; conditions: for IC50: Mus musculus, Hepatocyte; for MOS [3D in vitro IC50 / Human Cmax] 48 h / MOS [3D in vitro IC50 / Human Cmax] 8 days: C57BL/6, mouse
Protocol: To avoid increased evaporation, a humidified lid (Labcyte, USA), filled with PBS, was placed on each plate. […] From day 4 on, 50% of the medium was replaced daily with serum-free maintenance medium (WME with Cell Maintenance Supplement Pack (Thermo Fisher Scientific, USA)).
Compounds were obtained from Sigma-Aldrich if not otherwise stated. […] Toxicity treatment started on day 7 with re-dosing every second day. On the first day of exposure, 50 μl of the cell culture media was removed and 50 μl of fresh cell culture media containing the compound solution was added to the well to achieve the desired concentration. For redosing, 50 μl of cell culture media was replaced with fresh compound-containing cell culture media. […] The dose-response curves were plotted, and IC50 values were calculated using Graph-Pad Prism.
Drug-induced liver injury (DILI) is a major concern in drug development, which often cannot be predicted in vitro due to inherent limitations of 2D hepatocyte cultures, including short-term viability and decreased functionality. […] The spheroids either experienced a single treatment and were analyzed after 48 hours (Fig 3A–3G, 48 h), or they were repeatedly treated every 2 days and analyzed at day 8 (Fig 3A–3G, 8 days). In both cases, ATP content was used as a viability marker.

[2] = read-out: Mouse Cmax; reported mouse in vivo maximal plasma concentration; 41 (one per compound, as in cell); cited from earlier work
[3] = read-out: Human Cmax; reported human in vivo Cmax; 48 (one per compound, as in cell); cited from earlier work
[4] = tested on: liver coculture spheroids; experiment: Cytotoxicity by LDH release or ATP content in the cholestasis study; conditions: all treatment conditions (1.25, 2.5, 10 μM), 24 h
[5] = tested on: bile-salt-export pump (BSEP); experiment: Drug-induced cholestasis: BSEP gene expression (qRT-PCR) in coculture spheroids; conditions: 24 h
[6] = tested on: IL-6; experiment: Crosstalk of parenchymal and non-parenchymal cells: IL-6 mRNA in coculture spheroids; type: cell-based, mouse
Protocol: (§1) Cytochrome P450 (Cyp450), as well as IL-6 and TNFα gene expression was measured by qRT-PCR.
(§2) Drug-induced liver injuries can be caused by several modes of action, including perturbations of biochemical pathways caused by the interaction of parenchymal and non-parenchymal cells. These complex and dynamic cellular interactions can only be represented in vivo or in coculture models, which include the parenchymal and non-parenchymal cells.

[7] = tested on: TNFα; experiment: Crosstalk of parenchymal and non-parenchymal cells: TNFα mRNA in coculture spheroids; type: cell-based, mouse; conditions: addition of 50 μM Dexamethasone to LPS; as compared to IL-6
Protocol: as §1, §2

[8] = tested on: Cyp3a; experiment: Cyp3a inhibition, P450-Glo activity assay in non-induced spheroids; conditions: 10 μM Ketoconazole
[9] = tested on: Cyp2b10; experiment: Cyp450 induction on mRNA level (qRT-PCR) in liver spheroids; type: in vitro ADME, mouse; conditions: 100 μM Pb
Protocol: (§3) To analyze the metabolic capacity, spheroids were incubated with different Cyp inducers for 72 hours, starting 7 days or 14 days post seeding and analyzed by qRT-PCR. […] PCN and βNF were dissolved in DMSO as a 1000x stock solution, Pb was dissolved directly in the cell culture media.
(§4) For the biotransformation of endogenous compounds and xenobiotics including drugs, liver cytochromes P450 (Cyp450) play a critical role as they convert substances into more polar products to facilitate the elimination from the body. The major drug-metabolizing Cyp450 in mouse include Cyp1a1, Cyp1a2, Cyp2b10, and Cyp3a11 [34]. To assess their metabolic capacity, spheroids were incubated with well-known Cyp450 inducers for […] and analyzed for Cyp450 induction on RNA level on day 10 and day 17 (Figs 2C and S4). […] Additionally, spheroids were incubated with Phenobarbital (Pb), a known Cyp2b10 and Cyp3a11 inducer.

[10] = tested on: Cyp3a11; experiment: as above; type: in vitro ADME, mouse; conditions: PCN 50 μM, Pb 100 μM
Protocol: as §3, §4

[11] = tested on: Cyp3a11; design: method as in PMID 22466549; conditions: mouse in vivo; cited from earlier work
[12] = tested on: Cyp1a1; experiment: Cyp450 induction on mRNA level (qRT-PCR) in liver spheroids; type: in vitro ADME, mouse; conditions: 15 μM βNF
Protocol: as §3, §4

[13] = tested on: Cyp1a2; experiment: as above; type: in vitro ADME, mouse; conditions: 15 μM βNF
Protocol: as §3, §4

[14] = tested on: Cyp3a11; experiment: Crosstalk of parenchymal and non-parenchymal cells: Cyp3a11 mRNA in coculture spheroids ± LPS; conditions: LPS alone, 10 μg/ml, 48 h
Protocol: as §1, §2

[15] = tested on: IL-6 release of Kupffer cells and liver sinusoidal endothelial cells; experiment: LPS-induced IL-6 release (ELISA) from liver spheroids; type: cell-based, mouse; conditions: LPS for 72 hours, 14 days after production
Protocol: (§5) The activation potential of Kupffer cells and liver sinusoidal endothelial cells was measured by assessing the lipopolysaccharide (LPS)-induced interleukin 6 (IL-6) release. […] was added, and the supernatant was collected after […]. IL-6 concentrations were measured by ELISA (BioLegend, USA). For stellate-cell activation, spheroids were treated with different concentrations of transforming growth factor beta TGFβ (Bio-Techne AG, Switzerland) for 72 hours. Induction of smooth-muscle-α-actin (Acta2) gene expression was measured via quantitative real-time polymerase chain reaction (qRT-PCR), described in the section “gene expression analysis”. For the induction of the major histocompatibility complex class II (MHCII) on LSECs, spheroids were treated with 100 ng ml^-1 tumor-necrosis factor alpha (TNFα; Sigma-Aldrich, Switzerland) for 48 h. H2-Ab1 gene expression was measured via qRT-PCR.
(§6) NPCs are activated upon detection of endotoxins, such as lipopolysaccharides (LPS), which leads to the secretion of certain cytokines by NPCs. To assess the functionality and activation potential of NPCs, monoculture and coculture spheroids were treated with LPS for 72 hours and analyzed for interleukin 6 (IL-6) release (Fig 4C). […] Stellate cells are quiescent in a normal liver but can be activated upon liver damage and are responsible for scar-tissue formation. […]

[16] = tested on: Acta2 (alpha smooth muscle actin); experiment: Stellate-cell activation: Acta2 gene expression (qRT-PCR) in coculture spheroids; type: cell-based, mouse; conditions: 72 h
Protocol: as §5
NPCs are activated upon detection of endotoxins, such as lipopolysaccharides (LPS), which leads to the secretion of certain cytokines by NPCs. To assess the functionality and activation potential of NPCs, monoculture and coculture spheroids were treated with LPS for 72 hours and analyzed for interleukin 6 (IL-6) release (Fig 4C). […] Stellate cells are quiescent in a normal liver but can be activated upon liver damage and are responsible for scar-tissue formation. Stimulation with transforming growth factor beta (TGFβ), triggered a dose-dependent induction of Acta2 (alpha smooth muscle actin, αSMA), which is an activation marker for stellate cells (Fig 4D). Low concentrations of TGFβ increased Acta2 induction by 3.5 fold, whereas higher concentrations induced gene expression by 4.7-fold and 8-fold, respectively. The functional characterization of liver sinusoidal endothelial cells was performed by induction of the major histocompatibility complex II (MHC-II), which is constitutively expressed in LSECs but can be further increased by exposure to pro-inflammatory cytokines, such as tumor necrosis factor alpha (TNFα).

[17] = tested on: H2-Ab1 (MHC-II); experiment: MHC-II induction on LSECs: H2-Ab1 gene expression (qRT-PCR) in coculture spheroids; type: cell-based, mouse; conditions: 100 ng ml^-1 TNFα, 48 h
Protocol: as §5, §6

[18] = read-out: 3D in vitro IC50 8 days
[19] = read-out: 3D in vitro IC50 48 h

In the case of `CC(=O)Nc1ccc(O)cc1` [Acetaminophen], the IC50 [1, 18] is listed as 2750 µM, the Cmax [2] is listed as 2220 µM and the Cmax [3] is listed as 136 µM.

With `O=C1CC2(CCCC2)CC(=O)N1CCCCN1CCN(c2ncccn2)CC1` [Buspirone] the “MOS [3D in vitro IC50 / Human Cmax] 48 h” value [1] was 49189, the “MOS [3D in vitro IC50 / Human Cmax] 8 days” value [1] was 20489 and the IC50 [1, 19] was 443 µM. The IC50 [1, 18] was 184 µM, the “hepatotoxicity class by IC50/Cmax (MOS)” value ([1]; mouse) was “non-DILI compounds” and the Cmax [3] was 0.009 µM.

For `CN(C)CCCN1c2ccccc2Sc2ccc(Cl)cc21` [CPZ, Chlorpromazine], the “cytotoxicity by LDH or ATP” value [4] was “no cytotoxicity”, the “inhibition of BSEP expression” value ([5]; high concentrations of CPZ) was 96% and the “inhibition of BSEP expression” value ([5]; low concentrations of CPZ) was “up to 87%”.

With `O=P1(N(CCCl)CCCl)NCCCO1` (stereo not shown) [Cyclophosphamide] the IC50 [1, 19] was 197 µM, the IC50 [1, 18] was 13.3 µM and the “hepatotoxicity class by IC50/Cmax (MOS)” value ([1]; after 48 hours (short-term exposure), cut-off 100) was “hepatotoxic agents”. For the same compound, the Cmax [2] was 77 µM and the Cmax [3] was 96 µM.

For `C[C@@H]1C[C@H]2[C@@H]3CCC4=CC(=O)C=C[C@]4(C)[C@@]3(F)[C@@H](O)C[C@]2(C)[C@@]1(O)C(=O)CO` [Dexamethasone], the “reduction of LPS-induced IL-6 mRNA induction” value ([6]; co-administration of 50 μM Dexamethasone with LPS) was ~ 50% and the “effect on LPS-induced TNFα gene expression” value [7] was “only moderate reduction”.

For `O=C(O)Cc1ccccc1Nc1c(Cl)cccc1Cl` [Diclofenac], the IC50 [1, 19] is given as 294 µM, the IC50 [1, 18] is given as 29.7 µM and the Cmax [2] is given as 10 µM. The Cmax [3] was 9.43 µM.

In the case of `CC(=O)N1CCN(c2ccc(OCC3COC(Cn4ccnc4)(c4ccc(Cl)cc4Cl)O3)cc2)CC1` (stereo not shown) [Ketoconazole], the “downregulation of Cyp3a activity” value [8] is reported as 60%.

With `CN(Cc1cnc2nc(N)nc(N)c2n1)c1ccc(C(=O)N[C@@H](CCC(=O)O)C(=O)O)cc1` [Methotrexate] the “reduction in cell viability after a single dosage” value [1] was “only a slight reduction in cell viability”, the “MOS [3D in vitro IC50 / Human Cmax] 48 h” value [1] was 84’231 and the “MOS [3D in vitro IC50 / Human Cmax] 8 days” value [1] was 44.64. For the same compound, the IC50 [1, 18] was 207 µM, the “hepatotoxicity class by IC50/Cmax (MOS)” value ([1]; mouse) was “assigned to the correct class” and the Cmax [2] was 43 µM.

For `CCC1(c2ccccc2)C(=O)NC(=O)NC1=O` [Phenobarbital], the “Cyp2b10 mRNA induction” value ([9]; day 10) was 1.9 fold, the “Cyp2b10 mRNA induction” value ([9]; day 17) was 2.4 fold and the “Cyp3a11 mRNA induction compared to the vehicle control” value ([10]; day 10 (treated day 7-10)) was 6.2 fold. The “Cyp3a11 mRNA induction compared to the vehicle control” value ([10]; day 17 (treated day 14-17)) was 3.9 fold.

In the case of `CC(=O)[C@H]1[C@H](C#N)C[C@H]2[C@@H]3CC=C4C[C@@H](O)CC[C@]4(C)[C@H]3CC[C@@]21C` [Pregnenolone 16α-carbonitrile], the “reduced expression of Cyp3a11 mRNA when administered together with LPS” value [11] is listed as 25%, the “Cyp3a11 mRNA induction compared to the vehicle control” value ([10]; day 10 (treated day 7-10)) is listed as 20 fold and the “Cyp3a11 mRNA induction compared to the vehicle control” value ([10]; day 17 (treated day 14-17)) is listed as 59 fold.

In the case of `CC(C)NCC(O)COc1cccc2ccccc12` (stereo not shown) [Propranolol], the Cmax [3] is listed as 0.2 µM.

For `CN(C)[C@@H]1C(O)=C(C(N)=O)C(=O)[C@@]2(O)C(O)=C3C(=O)c4c(O)cccc4[C@@](C)(O)[C@H]3C[C@@H]12` [Tetracycline], the IC50 [1, 19] is listed as 436 µM, the IC50 [1, 18] is listed as 39.7 µM and the Cmax [2] is listed as 11 µM. For the same compound, the Cmax [3] was 21 µM.

For `Cc1c(C)c2c(c(C)c1O)CCC(C)(COc1ccc(CC3SC(=O)NC3=O)cc1)O2` (stereo not shown) [Troglitazone], the “cytotoxicity by LDH or ATP” value [4] was “no cytotoxicity”, the “inhibition of BSEP expression” value ([5]; 1.25 μM) was 10% and the “inhibition of BSEP expression” value ([5]; 2.5 μM) was 40%. The “inhibition of BSEP expression” value ([5]; 10 μM) was 89%.

For `O=c1cc(-c2ccccc2)oc2ccc3ccccc3c12` [β-naphthoflavone], the “Cyp1a1 mRNA induction” value ([12]; day 10) was 90 fold, the “Cyp1a1 mRNA induction” value ([12]; day 17) was 103 fold and the “Cyp1a2 mRNA induction” value ([13]; day 10) was 157 fold. For the same compound, the “Cyp1a2 mRNA induction” value ([13]; day 17) was 59 fold.

For lipopolysaccharide [LPS], the “Cyp3a11 mRNA induction” value [14] was “did not lead to Cyp3a11 mRNA induction”, the “IL-6 mRNA expression increase” value ([6]; LPS alone, 10 μg/ml, 48 h, coculture spheroids) was 6 fold and the IL-6 release ([15]; coculture spheroids) was 65 ± 11 pg/mL. The IL-6 release ([15]; monoculture spheroids) was 2 pg/mL.

In the case of transforming growth factor beta [TGFβ], the Acta2 induction ([16]; higher concentration of TGFβ (first of two)) is reported as 4.7 fold, the Acta2 induction ([16]; higher concentration of TGFβ (second of two)) is reported as 8 fold and the Acta2 induction ([16]; low concentrations of TGFβ) is reported as 3.5 fold.

For tumor-necrosis factor alpha [TNFα], the “increase of mRNA expression of MHC-II (H2-Ab1)” value [17] was 2.3 fold.
